# From PMC8151276, “An Integrated Approach toward NanoBRET Tracers for Analysis of GPCR Ligand Engagement” (Molecules, 2021)
# Assays:
# P2RY8 = molecular target: T1, P2RY8 (Homo sapiens, UniProt Q86VZ1); assay: NanoBRET screen HiBiT-P2RY8 in HEK293; type: binding
# T1 construct: purchased Promega (in-house HiBiT-GPCR construct library, NanoBRET)
# Procedure: (§1) Each tracer candidate was screened across the entire library of HiBiT-GPCR constructs using NanoBRET as the detection modality. As depicted in Figure 4A, the specificity of interactions was evaluated through decrease in BRET due to competitive displacement of a bound tracer by excess parental compound. Each tracer was analyzed for binding to each HiBiT-GPCR fusion in the absence and in the presence of competing parental compound. Briefly, HEK293 cells were transfected with HiBiT-GPCR constructs diluted into promoterless DNA to reduce expression and maximize translocation to the cell surface. Each tracer candidate was then screened at concentrations of 1 μM and 0.1 μM across cells expressing these fusions. Cells were treated for 1.5 h with tracer either alone or in the presence of 20 μM competing parental compound (i.e., control). BRET was measured upon addition of purified LgBiT and subsequent complementation with HiBiT genetically fused to a GPCR. The specificity of interactions was assessed through a decrease in BRET signal due to competitive displacement of the bound tracer. To further gauge the robustness of these interactions, the fold response over the control (i.e., BRETtracer/BRETcontrol) was calculated. We chose a 1.5-fold response, which translates to ≥7-fold signal over noise as the minimal threshold required to score an interaction as positive.
# (§2) HiBiT-GPCR DNA constructs were diluted in 10 mM Tris pH 8 to a final concentration of 0.01 μg/μL, arrayed in 96-well plates and stored at −20 °C. For transfection, HEK293 cells were suspended in Opti-MEM (without phenol red) supplemented with 2% fetal bovine serum (Seradigm) and 100 units/mL penicillin–streptomycin (Gibco) at a final concentration of 220,000 cells/mL and dispensed into white 96-well plates at 90 μL/well. Subsequent transfections and screens were carried using an Agilent Bravo Automated Liquid Handling Platform. First, the 96-well HiBiT DNA arrays were diluted 25-fold in Opti-MEM (without serum or phenol red) to a final concentration of 0.0004 μg/μL and 20 μL of the diluted DNAs were transferred into new 96-well plates. Next, promoterless carrier DNA (1 μg/μL) was diluted 25-fold (0.04 μg/μL) and then dispensed into the diluted arrays at 20 μL/well. Following brief mixing, Viafect transfection reagent (Promega) diluted 16-fold into Opti-MEM was dispensed into the plates at 40 μL/well. After mixing by pipetting, plates were incubated for 10 min on the pipetting station deck. The DNA-transfection reagent complexes were then added to plates containing cells. To facilitate the screen, 10 μL of DNA-transfection reagent complexes were added in duplicates to the top 4 and bottom 4 rows, resulting in two identical 48-well arrays per plate. Plates with transfected cells were incubated for 18–20 h at 37 °C/5% CO2. A screen of each tracer across the entire library using two different concentrations requires duplicate plates of transfected cells. Depending on the number of tracers being screened, transfections can be scaled up using the same ratios. The next day, for each tracer, four 20× screening solutions in tracer dilution buffer (Promega) were prepared: two duplicates at final concentration of 20 μM and two duplicates at a final concentration of 2 μM. […] The four resulting solutions were diluted 4-fold in Opti-MEM without serum or phenol red to generate 5× solutions (5 µM and 0.5 µM tracer +/− 100 μM competing compound). To screen the library, a BioTek MultiFlo FX liquid dispenser was used to dispense 22.5 µL of tracer solution to the top 4 rows and 22.5 µL tracer + competing compound solution to the 4 bottom rows. Plates were briefly mixed on an orbital shaker and incubated for 1.5 h at room temperature. […] Plates were briefly mixed on an orbital shaker and incubated for 15 min to allow complementation.
# GPR50 = molecular target: T2, GPR50 (Homo sapiens, UniProt Q13585); assay: NanoBRET screen HiBiT-GPR50 in HEK293; type: binding
# T2 construct: purchased Promega (in-house HiBiT-GPCR construct library, NanoBRET)
# Procedure: as §1, §2
# T2 sequence (Q13585 whole entry): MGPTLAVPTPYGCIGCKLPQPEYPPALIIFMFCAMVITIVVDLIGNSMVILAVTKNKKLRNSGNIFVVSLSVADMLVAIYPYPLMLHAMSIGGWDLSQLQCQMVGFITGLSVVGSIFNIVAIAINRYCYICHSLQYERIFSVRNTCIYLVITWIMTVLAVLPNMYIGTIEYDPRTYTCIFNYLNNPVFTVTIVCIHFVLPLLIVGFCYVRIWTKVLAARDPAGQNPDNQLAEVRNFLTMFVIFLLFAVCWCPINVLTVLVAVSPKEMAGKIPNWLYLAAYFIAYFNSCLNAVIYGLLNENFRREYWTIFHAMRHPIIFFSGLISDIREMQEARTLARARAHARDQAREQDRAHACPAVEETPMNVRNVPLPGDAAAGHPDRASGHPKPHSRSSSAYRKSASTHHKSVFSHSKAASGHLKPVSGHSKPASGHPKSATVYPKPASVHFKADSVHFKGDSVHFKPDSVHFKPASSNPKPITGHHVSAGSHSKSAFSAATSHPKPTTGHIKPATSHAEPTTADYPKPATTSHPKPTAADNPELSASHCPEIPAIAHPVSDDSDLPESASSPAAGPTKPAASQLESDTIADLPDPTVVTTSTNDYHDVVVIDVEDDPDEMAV
# T1 sequence (Q86VZ1 whole entry): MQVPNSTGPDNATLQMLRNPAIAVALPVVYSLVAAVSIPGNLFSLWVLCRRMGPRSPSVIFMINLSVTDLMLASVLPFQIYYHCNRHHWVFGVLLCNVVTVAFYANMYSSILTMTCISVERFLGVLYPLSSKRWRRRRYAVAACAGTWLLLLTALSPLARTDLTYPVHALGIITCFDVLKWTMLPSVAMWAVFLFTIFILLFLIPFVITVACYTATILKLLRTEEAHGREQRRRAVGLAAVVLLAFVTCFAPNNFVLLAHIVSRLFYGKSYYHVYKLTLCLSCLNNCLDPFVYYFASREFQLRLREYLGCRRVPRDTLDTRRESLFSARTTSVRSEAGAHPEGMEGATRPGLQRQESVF
SMILES,"NanoBRET Fold Response (GPR50; GPR50, tracer 0.1μM)","NanoBRET Fold Response (GPR50; GPR50, tracer 1μM)","NanoBRET Fold Response (P2RY8; P2RY8, tracer 0.1μM)","NanoBRET Fold Response (P2RY8; P2RY8, tracer 1μM)",further results
CN1CCN(C2=Nc3cc(Cl)ccc3Nc3ccc(CNC(=O)CCOCCOCCOCCOCCNC(=O)CCc4ccc5n4[B-](F)(F)[N+]4=C(c6ccc[nH]6)C=CC4=C5)cc32)CC1 [Clozapine-b-2-NB590],–,–,–,–,"NanoBRET Fold Response (P2RY8; P2RY8, 0.1μM tracer): 0.97; NanoBRET Fold Response (P2RY8; P2RY8, 1μM tracer): 0.93; NanoBRET Fold Response (GPR50; GPR50, 0.1μM tracer): 0.98; NanoBRET Fold Response (GPR50; GPR50, 1μM tracer): 0.97"
CN(C)CCC=C1c2ccccc2CCc2ccc(C(=O)NCCNC(=O)CCOCCOCCOCCOCCNC(=O)CCc3ccc4n3[B-](F)(F)[N+]3=C(c5ccc[nH]5)C=CC3=C4)cc21 [Amitriptyline-b-2-NB590],0.99,0.99,–,–,"NanoBRET Fold Response (P2RY8; tracer at 0.1μM, listed as amitriptyline-b-2-NB590): 0.88; NanoBRET Fold Response (P2RY8; tracer at 1μM, listed as amitriptyline-b-2-NB590): 1.07"
CCOC(=O)c1cc(C#N)c(N2CCC(C(=O)NS(=O)(=O)Cc3ccccc3/C=C/C(=O)NCCNC(=O)CCc3ccc4n3[B-](F)(F)[N+]3=C(c5ccc[nH]5)C=CC3=C4)CC2)nc1C [AZD1283-1-NB590],–,–,–,–,"NanoBRET Fold Response (P2RY8; P2RY8, 0.1μM): 1.56; NanoBRET Fold Response (P2RY8; P2RY8, 1μM): 1.89; NanoBRET Fold Response (GPR50; GPR50, 0.1μM): 0.97; NanoBRET Fold Response (GPR50; GPR50, 1μM): 0.97"
CC(C)N(CC[C@H](c1ccccc1)c1cc(CCNC(=O)CCOCCOCCOCCOCCNC(=O)CCc2ccc3n2[B-](F)(F)[N+]2=C(c4ccc[nH]4)C=CC2=C3)ccc1O)C(C)C [Tolterodine-2-NB590],1.12,0.93,1.06,1.22,–
CC(C)N(CC[C@H](c1ccccc1)c1cc(CCNC(=O)c2ccc(CNC(=O)CCc3ccc4n3[B-](F)(F)[N+]3=C(c5ccc[nH]5)C=CC3=C4)cc2)ccc1O)C(C)C [Tolterodine-BZ-NB590],0.94,0.39,0.96,1.01,–
O=C(CCOCCOCCOCCOCCNC(=O)CCc1ccc2n1[B-](F)(F)[N+]1=C(c3ccc[nH]3)C=CC1=C2)NCCCN1CCN(C2=Nc3ccccc3Oc3ccc(Cl)cc32)CC1 [Loxapine-a-2-NB590],0.74,1.09,0.95,0.87,–
CN1CCN(C2=Nc3cc(Cl)ccc3N(CC(=O)NCCOCCOCCOCCOCCNC(=O)CCc3ccc4n3[B-](F)(F)[N+]3=C(c5ccc[nH]5)C=CC3=C4)c3ccccc32)CC1 [Clozapine-c-2-NB590],–,–,–,–,"NanoBRET Fold Response (P2RY8; P2RY8, 0.1μM tracer): 1.05; NanoBRET Fold Response (P2RY8; P2RY8, 1μM tracer): 0.79"
CN(C)CCC=C1c2ccccc2CCc2ccc(C(=O)NCCNC(=O)CCOCCOCCOCCOCCNC(=O)CCc3ccc4n3[B-](F)(F)[N+]3=C(c5ccc[nH]5)C=CC3=C4)cc21 [Amitriptyline-a-2-NB590],–,–,–,–,NanoBRET Fold Response (P2RY8; tracer at 0.1μM): 1.05; NanoBRET Fold Response (P2RY8; tracer at 1μM): 0.90
Cc1nc2n(c(=O)c1CCN1CCC(c3noc4cc(F)ccc34)CC1)CCCC2OC(=O)NCCOCCOCCOCCOCCNC(=O)CCc1ccc2n1[B-](F)(F)[N+]1=C(c3ccc[nH]3)C=CC1=C2 (stereo not drawn) [Risperidone-2-NB590],0.99,1.01,1.06,0.96,–
COc1ccc2[nH]c(-c3ccc(CNC(=O)CCOCCOCCOCCOCCNC(=O)CCc4ccc5n4[B-](F)(F)[N+]4=C(c6ccc[nH]6)C=CC4=C5)cc3)c(CCNC(C)=O)c2n1 [AzomelatoninICO9-2-NB590],–,–,–,–,NanoBRET Fold Response (P2RY8; 0.1μM tracer): 1.14; NanoBRET Fold Response (P2RY8; 1μM tracer): 1.05; NanoBRET Fold Response (GPR50; 0.1μM tracer): 0.96; NanoBRET Fold Response (GPR50; 1μM tracer): 1.01
COc1ccccc1N1CCN(CCCCN2C(=O)c3ccc(CNC(=O)CCOCCOCCOCCOCCNC(=O)CCc4ccc5n4[B-](F)(F)[N+]4=C(c6ccc[nH]6)C=CC4=C5)cc3C2=O)CC1 [NAN-190-2-NB590],1.00,–,0.99,1.14,–
O=C(CCc1ccc2n1[B-](F)(F)[N+]1=C(c3ccc[nH]3)C=CC1=C2)NCCOCCOCCNC(=O)OCCOCCN1CCN(C2=Nc3ccccc3Sc3ccccc32)CC1 [Quetiapine-a-2-NB590],1.11,0.96,0.94,0.88,–
O=C(CCOCCOCCOCCOCCNC(=O)CCc1ccc2n1[B-](F)(F)[N+]1=C(c3ccc[nH]3)C=CC1=C2)NCCCN1CCN(C2=Nc3cc(Cl)ccc3Nc3ccccc32)CC1 [Clozapine-a-2-NB590],–,–,–,–,"NanoBRET Fold Response (P2RY8; P2RY8, 0.1μM tracer): 0.97; NanoBRET Fold Response (P2RY8; P2RY8, 1μM tracer): 0.96; NanoBRET Fold Response (GPR50; GPR50, 0.1μM tracer): 1.04; NanoBRET Fold Response (GPR50; GPR50, 1μM tracer): 1.00"
N#CN=C(NCCCOc1cccc(CN2CCCCC2)c1)NCCNC(=O)CCOCCOCCOCCOCCNC(=O)CCc1ccc2n1[B-](F)(F)[N+]1=C(c3ccc[nH]3)C=CC1=C2 [Aminopotentidine-2-NB590],1.02,0.97,1.06,1.02,–
O=C(CCc1ccc2n1[B-](F)(F)[N+]1=C(c3ccc[nH]3)C=CC1=C2)NCc1ccc(C(=O)NCCOCCOCCNCC(O)COc2cccc3ccccc23)cc1 (stereo not drawn) [Propranolol-3-NB590],–,–,–,–,"NanoBRET Fold Response (P2RY8; P2RY8, 0.1μM): 1.11; NanoBRET Fold Response (P2RY8; P2RY8, 1μM): 1.00; NanoBRET Fold Response (GPR50; GPR50, 0.1μM): 1.01; NanoBRET Fold Response (GPR50; GPR50, 1μM): 1.05"
O=C(CCc1ccc2n1[B-](F)(F)[N+]1=C(c3ccc[nH]3)C=CC1=C2)NCc1ccc(C(=O)NCCOCCC(=O)N[C@@H]2CC[C@@]3(O)[C@H]4Cc5ccc(O)c6c5[C@@]3(CCN4CC3CC3)[C@H]2O6)cc1 [Naltrexone-3-NB590],0.94,0.97,0.86,0.47,–
COc1ccccc1N1CCN(CCCCN2C(=O)c3ccc(CNC(=O)CCOCCNC(=O)c4ccc(CNC(=O)CCc5ccc6n5[B-](F)(F)[N+]5=C(c7ccc[nH]7)C=CC5=C6)cc4)cc3C2=O)CC1 [NAN-190-3-NB590],0.97,0.89,1.21,1.12,–
Cc1cc2c(s1)Nc1ccccc1N=C2N1CCN(CCCNC(=O)CCOCCOCCOCCOCCNC(=O)CCc2ccc3n2[B-](F)(F)[N+]2=C(c4ccc[nH]4)C=CC2=C3)CC1 [Olanzapine-a-2-NB590],1.01,1.03,–,1.13,–
CCCn1c(=O)c2[nH]c(-c3ccc(OCC(=O)NCCNC(=O)CCOCCNC(=O)c4ccc(CNC(=O)CCc5ccc6n5[B-](F)(F)[N+]5=C(c7ccc[nH]7)C=CC5=C6)cc4)cc3)nc2n(CCC)c1=O [XAC-3-NB590],1.05,1.04,1.30,0.83,–
CN(CCC=C1c2ccccc2CCc2ccccc21)C(=O)CCOCCOCCOCCOCCNC(=O)CCc1ccc2n1[B-](F)(F)[N+]1=C(c3ccc[nH]3)C=CC1=C2 [Amitriptyline-e-2-NB590],–,–,–,–,NanoBRET Fold Response (P2RY8; tracer at 1μM): 0.99
COc1ccc2c(n1)c(CCNC(C)=O)cn2CCNC(=O)CCc1ccc2n1[B-](F)(F)[N+]1=C(c3ccc[nH]3)C=CC1=C2 [Azamelatonin-1-NB590],–,–,–,–,NanoBRET Fold Response (P2RY8; 0.1μM tracer): 1.30; NanoBRET Fold Response (P2RY8; 1μM tracer): 1.30; NanoBRET Fold Response (GPR50; 0.1μM tracer): 0.95; NanoBRET Fold Response (GPR50; 1μM tracer): 0.91
